In PubChem BioAssay AID1259407 (Chemical Carcinogenesis Research Information System (CCRIS), 2018):
The source made the active and inactive calls. The rule behind the calls is not given here.

Test system: CCRIS mutagenicity, Ames/micronucleus/aberration tests
Assay: CCRIS mutagenicity studies
[1] = Test System: AMES SALMONELLA TYPHIMURIUM, Strain/Indicator: TA98, Metabolic Activation: NONE, Method: STANDARD PLATE
[2] = Test System: AMES SALMONELLA TYPHIMURIUM, Strain/Indicator: TA100, Metabolic Activation: NONE, Method: STANDARD PLATE
[3] = Test System: AMES SALMONELLA TYPHIMURIUM, Strain/Indicator: TA98, Metabolic Activation: RAT, LIVER, S-9, AROCLOR 1254, Method: STANDARD PLATE
[4] = Test System: AMES SALMONELLA TYPHIMURIUM, Strain/Indicator: TA100, Metabolic Activation: RAT, LIVER, S-9, AROCLOR 1254, Method: STANDARD PLATE

Measured: mutagenic call

O=C([O-])c1ccc2ccccc2c1.[Mn+2].[O-]C(O)c1ccc2ccccc2c1
inactive: Test System: AMES SALMONELLA TYPHIMURIUM, Strain/Indicator: TA98, Metabolic Activation: HAMSTER, LIVER, S-9, AROCLOR 1254 (10%), Method: STANDARD PLATE inactive; negative | [1] inactive; negative | Test System: AMES SALMONELLA TYPHIMURIUM, Strain/Indicator: TA98, Metabolic Activation: RAT, LIVER, S-9, AROCLOR 1254 (10%), Method: STANDARD PLATE inactive; negative | Test System: AMES SALMONELLA TYPHIMURIUM, Strain/Indicator: TA100, Metabolic Activation: HAMSTER, LIVER, S-9, AROCLOR 1254 (10%), Method: STANDARD PLATE inactive; negative | [2] inactive; negative | Test System: AMES SALMONELLA TYPHIMURIUM, Strain/Indicator: TA100, Metabolic Activation: RAT, LIVER, S-9, AROCLOR 1254 (10%), Method: STANDARD PLATE inactive; negative | Test System: AMES SALMONELLA TYPHIMURIUM, Strain/Indicator: TA1535, Metabolic Activation: HAMSTER, LIVER, S-9, AROCLOR 1254 (10%), Method: STANDARD PLATE inactive; negative | Test System: AMES SALMONELLA TYPHIMURIUM, Strain/Indicator: TA1535, Metabolic Activation: NONE, Method: STANDARD PLATE inactive; negative | Test System: AMES SALMONELLA TYPHIMURIUM, Strain/Indicator: TA1535, Metabolic Activation: RAT, LIVER, S-9, AROCLOR 1254 (10%), Method: STANDARD PLATE inactive; negative | Test System: AMES SALMONELLA TYPHIMURIUM, Strain/Indicator: TA1537, Metabolic Activation: HAMSTER, LIVER, S-9, AROCLOR 1254 (10%), Method: STANDARD PLATE inactive; negative | Test System: AMES SALMONELLA TYPHIMURIUM, Strain/Indicator: TA1537, Metabolic Activation: NONE, Method: STANDARD PLATE inactive; negative | Test System: AMES SALMONELLA TYPHIMURIUM, Strain/Indicator: TA1537, Metabolic Activation: RAT, LIVER, S-9, AROCLOR 1254 (10%), Method: STANDARD PLATE inactive; negative | Test System: AMES SALMONELLA TYPHIMURIUM, Strain/Indicator: TA1538, Metabolic Activation: HAMSTER, LIVER, S-9, AROCLOR 1254 (10%), Method: STANDARD PLATE inactive; negative | Test System: AMES SALMONELLA TYPHIMURIUM, Strain/Indicator: TA1538, Metabolic Activation: NONE, Method: STANDARD PLATE inactive; negative | Test System: AMES SALMONELLA TYPHIMURIUM, Strain/Indicator: TA1538, Metabolic Activation: RAT, LIVER, S-9, AROCLOR 1254 (10%), Method: STANDARD PLATE inactive; negative

CC(C)(C)OOC(=O)c1ccccc1
inactive: Test System: AMES SALMONELLA TYPHIMURIUM, Strain/Indicator: TA100, Metabolic Activation: NONE, Method: PREINCUBATION inactive; negative | Test System: AMES SALMONELLA TYPHIMURIUM, Strain/Indicator: TA100, Metabolic Activation: RAT, LIVER, S-9, AROCLOR 1254 (10%), Method: PREINCUBATION inactive; negative | Test System: AMES SALMONELLA TYPHIMURIUM, Strain/Indicator: TA1535, Metabolic Activation: HAMSTER, LIVER, S-9, AROCLOR 1254 (10%), Method: PREINCUBATION inactive; negative | Test System: AMES SALMONELLA TYPHIMURIUM, Strain/Indicator: TA1535, Metabolic Activation: NONE, Method: PREINCUBATION inactive; negative | Test System: AMES SALMONELLA TYPHIMURIUM, Strain/Indicator: TA1535, Metabolic Activation: RAT, LIVER, S-9, AROCLOR 1254 (10%), Method: PREINCUBATION inactive; negative
active: Test System: AMES SALMONELLA TYPHIMURIUM, Strain/Indicator: TA98, Metabolic Activation: HAMSTER, LIVER, S-9, AROCLOR 1254 (10%), Method: PREINCUBATION active; positive | Test System: AMES SALMONELLA TYPHIMURIUM, Strain/Indicator: TA98, Metabolic Activation: NONE, Method: PREINCUBATION active; positive | Test System: AMES SALMONELLA TYPHIMURIUM, Strain/Indicator: TA98, Metabolic Activation: RAT, LIVER, S-9, AROCLOR 1254 (10%), Method: PREINCUBATION active; positive | Test System: AMES SALMONELLA TYPHIMURIUM, Strain/Indicator: TA100, Metabolic Activation: HAMSTER, LIVER, S-9, AROCLOR 1254 (10%), Method: PREINCUBATION active; positive | Test System: AMES SALMONELLA TYPHIMURIUM, Strain/Indicator: TA1537, Metabolic Activation: HAMSTER, LIVER, S-9, AROCLOR 1254 (10%), Method: PREINCUBATION active; positive | Test System: AMES SALMONELLA TYPHIMURIUM, Strain/Indicator: TA1537, Metabolic Activation: NONE, Method: PREINCUBATION active; positive | Test System: AMES SALMONELLA TYPHIMURIUM, Strain/Indicator: TA1537, Metabolic Activation: RAT, LIVER, S-9, AROCLOR 1254 (10%), Method: PREINCUBATION active; positive

N#[N+]c1ccc(CO)cc1
active: Test System: AMES SALMONELLA TYPHIMURIUM, Strain/Indicator: TA102, Metabolic Activation: NONE, Method: STANDARD PLATE active; positive | Test System: CHINESE HAMSTER V-79, Strain/Indicator: V-79/6-THIOGUANINE, Metabolic Activation: NONE active; positive

Cc1cc2c(c3ccc4ccccc4c13)CCC2=O
active: [3] active; positive | Test System: AMES SALMONELLA TYPHIMURIUM, Strain/Indicator: TA100, Metabolic Activation: RAT, LIVER, MICROSOMES, BENZO[A]PYRENE, Method: STANDARD PLATE active; positive | [4] active; positive | Test System: AMES SALMONELLA TYPHIMURIUM, Strain/Indicator: TA1538, Metabolic Activation: RAT, LIVER, S-9, AROCLOR 1254, Method: STANDARD PLATE active; positive
inactive: Test System: AMES SALMONELLA TYPHIMURIUM, Strain/Indicator: TA100, Metabolic Activation: RAT, LIVER, MICROSOMES, 15,16-DIHYDRO-11-METHYL-17(H)-CYCLOPENTA[A] PHENANTHREN-17-ONE, Method: STANDARD PLATE inactive; negative | Test System: AMES SALMONELLA TYPHIMURIUM, Strain/Indicator: TA100, Metabolic Activation: RAT, LIVER, MICROSOMES, CLOFIBRATE, Method: STANDARD PLATE inactive; negative | Test System: AMES SALMONELLA TYPHIMURIUM, Strain/Indicator: TA100, Metabolic Activation: RAT, LIVER, MICROSOMES, DEXAMETHASONE, Method: STANDARD PLATE inactive; negative | Test System: AMES SALMONELLA TYPHIMURIUM, Strain/Indicator: TA100, Metabolic Activation: RAT, LIVER, MICROSOMES, ISONIAZID, Method: STANDARD PLATE inactive; negative | Test System: AMES SALMONELLA TYPHIMURIUM, Strain/Indicator: TA100, Metabolic Activation: RAT, LIVER, MICROSOMES, PHENOBARBITONE, Method: STANDARD PLATE inactive; negative | Test System: AMES SALMONELLA TYPHIMURIUM, Strain/Indicator: TA100, Metabolic Activation: RAT, LIVER, MICROSOMES, Method: STANDARD PLATE inactive; negative

COc1cccc(CN2[C@@H]3c4ccccc4-c4ccccc4[C@@H]32)c1 (stereo partly specified)
active: [2] active; positive

Cc1cnc2cc3nc(N)n(C)c3c(C)c2n1
active: Test System: AMES SALMONELLA TYPHIMURIUM, Strain/Indicator: TA98, Metabolic Activation: RAT, LIVER, S-9, PCB, Method: PREINCUBATION active; positive | Test System: AMES SALMONELLA TYPHIMURIUM, Strain/Indicator: TA98, Metabolic Activation: S-9 active; positive | Test System: AMES SALMONELLA TYPHIMURIUM, Strain/Indicator: TA98, Metabolic Activation: S-9, Method: PREINCUBATION active; positive | Test System: AMES SALMONELLA TYPHIMURIUM, Strain/Indicator: YG1024, Metabolic Activation: RAT, LIVER, S-9, PCB, Method: PREINCUBATION active; positive | Test System: AMES SALMONELLA TYPHIMURIUM, Strain/Indicator: YG1024, Metabolic Activation: S-9 active; positive

O=[N+]([O-])c1cc([N+](=O)[O-])c2c3c(c4cccc5ccc1c2c54)CCCC3
active: [1] active; positive | [3] active; positive

CCOc1cc2c(c3ccc4ccccc4c13)CCC2=O
inactive: [4] inactive; negative

O=[N+]([O-])c1c(O)ccc2c1[nH]c1ccccc12
inactive: [1] inactive; negative | [3] inactive; negative

Oc1ccc2c3ccccc3c3cc4ccccc4cc3c2c1O
active: Test System: AMES SALMONELLA TYPHIMURIUM, Strain/Indicator: TA100, Metabolic Activation: RAT, LIVER, S-9, AROCLOR 1254, Method: PREINCUBATION active; positive
